# According to PubChem BioAssay AID1963852 (Molecular Pharmacology Branch, DTP, NCI, 2024):
# Tested on: 282377-053-R-J1-PDC complex spheroid viability
# Assay: Anticancer human tumor 282377-053-R-J1-PDC patient-derived colon adenocarcinoma cell line growth inhibition [POLQ]
# Settings: for IC50: curve of first compound; for viability, T/C: stronger effect = lower value
# Method in brief: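 Complex spheroid viability model combining PDC tumour cells with endothelial (HUVEC) and MSC stromal cells. Novobiocin, ART-558 or RP6685 were tested singly and in combination with standard and investigational anticancer drugs. Each was titrated in half-log steps from near clinical Cmax, or from 10 microM where Cmax was unknown.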
# [1] = second compound 0.0316 µM, first compound 0.00316 µM
# [2] = second compound 0.0316 µM, first compound 0.01 µM
# [3] = second compound 0.0316 µM, first compound 0.0316 µM
# [4] = second compound 0.0316 µM, first compound 0.1 µM
# [5] = second compound 0.0316 µM, first compound 0.316 µM
# [6] = second compound 0.0316 µM, first compound 1 µM
# [7] = second compound 0.1 µM, first compound 0.00316 µM
# [8] = second compound 0.1 µM, first compound 0.01 µM
# [9] = second compound 0.1 µM, first compound 0.0316 µM
# [10] = second compound 0.1 µM, first compound 0.1 µM
# [11] = second compound 0.1 µM, first compound 0.316 µM
# [12] = second compound 0.1 µM, first compound 1 µM
# [13] = second compound 0.316 µM, first compound 0.00316 µM
# [14] = second compound 0.316 µM, first compound 0.01 µM
# [15] = second compound 0.316 µM, first compound 0.0316 µM
# [16] = second compound 0.316 µM, first compound 0.1 µM
# [17] = second compound 0.316 µM, first compound 0.316 µM
# [18] = second compound 0.316 µM, first compound 1 µM
# [19] = second compound 1 µM, first compound 0.00316 µM
# [20] = second compound 1 µM, first compound 0.01 µM
# [21] = second compound 1 µM, first compound 0.0316 µM
# [22] = second compound 1 µM, first compound 0.1 µM
# [23] = second compound 1 µM, first compound 0.316 µM
# [24] = second compound 1 µM, first compound 1 µM
# [25] = second compound 3.16 µM, first compound 0.00316 µM
# [26] = second compound 3.16 µM, first compound 0.01 µM
# [27] = second compound 3.16 µM, first compound 0.0316 µM
# [28] = second compound 3.16 µM, first compound 0.1 µM
# [29] = second compound 3.16 µM, first compound 0.316 µM
# [30] = second compound 3.16 µM, first compound 1 µM
# [31] = second compound 10 µM, first compound 0.00316 µM
# [32] = second compound 10 µM, first compound 0.01 µM
# [33] = second compound 10 µM, first compound 0.0316 µM
# [34] = second compound 10 µM, first compound 0.1 µM
# [35] = second compound 10 µM, first compound 0.316 µM
# [36] = second compound 10 µM, first compound 1 µM
# 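Note: spheroids exposed to compounds for seven days.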
# 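Throughout, for viability, T/C: 100% = DMSO vehicle control viability.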
smiles,measurement,setting,value
COc1cccc(OCCCN)c1-c1cc(Nc2cnc(C#N)cn2)n[nH]1 + Cc1cccc(N(C)C(=O)C2C(O)CCN2c2nc(C)cc(C(F)(F)F)c2C#N)c1,IC50,second compound 0.0316 µM,632 nM
same,IC50,second compound 0.1 µM,559 nM
same,IC50,second compound 0.316 µM,> 1000 nM
same,IC50,second compound 1 µM,545 nM
same,IC50,second compound 3.16 µM,300 nM
same,IC50,second compound 10 µM,395 nM
same,"viability, T/C",[1],102%
same,"viability, T/C",[2],98.5%
same,"viability, T/C",[3],85.8%
same,"viability, T/C",[4],74.5%
same,"viability, T/C",[5],60.9%
same,"viability, T/C",[6],43.1%
same,"viability, T/C",[7],100%
same,"viability, T/C",[8],95.4%
same,"viability, T/C",[9],97%
same,"viability, T/C",[10],73.4%
same,"viability, T/C",[11],60%
same,"viability, T/C",[12],41.5%
same,"viability, T/C",[13],91%
same,"viability, T/C",[14],88.5%
same,"viability, T/C",[15],86.1%
same,"viability, T/C",[16],64.2%
same,"viability, T/C",[17],55.7%
same,"viability, T/C",[18],49.2%
same,"viability, T/C",[19],109%
same,"viability, T/C",[20],90.2%
same,"viability, T/C",[21],72.9%
same,"viability, T/C",[22],59%
same,"viability, T/C",[23],57.3%
same,"viability, T/C",[24],45.1%
same,"viability, T/C",[25],95.9%
same,"viability, T/C",[26],102%
same,"viability, T/C",[27],84.7%
same,"viability, T/C",[28],65.7%
same,"viability, T/C",[29],51.8%
same,"viability, T/C",[30],39.4%
same,"viability, T/C",[31],85.3%
same,"viability, T/C",[32],90.1%
same,"viability, T/C",[33],72.3%
same,"viability, T/C",[34],61.8%
same,"viability, T/C",[35],55.8%
same,"viability, T/C",[36],39.6%
Cn1ncnc1[C@H]1c2n[nH]c(=O)c3cc(F)cc(c23)N[C@@H]1c1ccc(F)cc1 + Cc1cccc(N(C)C(=O)C2C(O)CCN2c2nc(C)cc(C(F)(F)F)c2C#N)c1,IC50,second compound 0.0316 µM,> 100 nM
same,IC50,second compound 0.1 µM,> 100 nM
same,IC50,second compound 0.316 µM,> 100 nM
same,IC50,second compound 1 µM,> 100 nM
same,IC50,second compound 3.16 µM,> 100 nM
same,IC50,second compound 10 µM,> 100 nM
same,"viability, T/C","second compound 0.0316 µM, first compound 0.000316 µM",111%
same,"viability, T/C","second compound 0.0316 µM, first compound 0.001 µM",86.9%
same,"viability, T/C",[1],105%
same,"viability, T/C",[2],128%
same,"viability, T/C",[3],98.3%
same,"viability, T/C",[4],89.3%
same,"viability, T/C","second compound 0.1 µM, first compound 0.000316 µM",125%
same,"viability, T/C","second compound 0.1 µM, first compound 0.001 µM",125%
same,"viability, T/C",[7],102%
same,"viability, T/C",[8],128%
same,"viability, T/C",[9],91.8%
same,"viability, T/C",[10],100%
same,"viability, T/C","second compound 0.316 µM, first compound 0.000316 µM",95.9%
same,"viability, T/C","second compound 0.316 µM, first compound 0.001 µM",114%
same,"viability, T/C",[13],98.2%
same,"viability, T/C",[14],93.5%
same,"viability, T/C",[15],111%
same,"viability, T/C",[16],95.5%
same,"viability, T/C","second compound 1 µM, first compound 0.000316 µM",116%
same,"viability, T/C","second compound 1 µM, first compound 0.001 µM",110%
same,"viability, T/C",[19],89%
same,"viability, T/C",[20],102%
same,"viability, T/C",[21],119%
same,"viability, T/C",[22],91.6%
same,"viability, T/C","second compound 3.16 µM, first compound 0.000316 µM",106%
same,"viability, T/C","second compound 3.16 µM, first compound 0.001 µM",130%
same,"viability, T/C",[25],82.9%
same,"viability, T/C",[26],115%
same,"viability, T/C",[27],88.5%
same,"viability, T/C",[28],112%
same,"viability, T/C","second compound 10 µM, first compound 0.000316 µM",105%
same,"viability, T/C","second compound 10 µM, first compound 0.001 µM",102%
same,"viability, T/C",[31],105%
same,"viability, T/C",[32],82.7%
same,"viability, T/C",[33],81.5%
same,"viability, T/C",[34],100%
O=C(c1cc(Cc2n[nH]c(=O)c3ccccc23)ccc1F)N1CCN(C(=O)C2CC2)CC1 + Cc1cccc(N(C)C(=O)C2C(O)CCN2c2nc(C)cc(C(F)(F)F)c2C#N)c1,IC50,second compound 0.0316 µM,> 10000 nM
same,IC50,second compound 0.1 µM,> 10000 nM
same,IC50,second compound 0.316 µM,> 10000 nM
same,IC50,second compound 1 µM,> 10000 nM
same,IC50,second compound 3.16 µM,> 10000 nM
same,IC50,second compound 10 µM,> 10000 nM
same,"viability, T/C",[3],104%
same,"viability, T/C",[4],107%
same,"viability, T/C",[5],109%
same,"viability, T/C",[6],107%
same,"viability, T/C","second compound 0.0316 µM, first compound 3.16 µM",106%
same,"viability, T/C","second compound 0.0316 µM, first compound 10 µM",80.7%
same,"viability, T/C",[9],110%
same,"viability, T/C",[10],108%
same,"viability, T/C",[11],112%
same,"viability, T/C",[12],90.9%
same,"viability, T/C","second compound 0.1 µM, first compound 3.16 µM",116%
same,"viability, T/C","second compound 0.1 µM, first compound 10 µM",80.4%
same,"viability, T/C",[15],83.3%
same,"viability, T/C",[16],94%
same,"viability, T/C",[17],101%
same,"viability, T/C",[18],87.3%
same,"viability, T/C","second compound 0.316 µM, first compound 3.16 µM",94%
same,"viability, T/C","second compound 0.316 µM, first compound 10 µM",85.3%
same,"viability, T/C",[21],100%
same,"viability, T/C",[22],92.2%
same,"viability, T/C",[23],108%
same,"viability, T/C",[24],111%
same,"viability, T/C","second compound 1 µM, first compound 3.16 µM",107%
same,"viability, T/C","second compound 1 µM, first compound 10 µM",95.3%
same,"viability, T/C",[27],92.2%
same,"viability, T/C",[28],117%
same,"viability, T/C",[29],104%
same,"viability, T/C",[30],88.6%
same,"viability, T/C","second compound 3.16 µM, first compound 3.16 µM",101%
same,"viability, T/C","second compound 3.16 µM, first compound 10 µM",101%
same,"viability, T/C",[33],84.6%
same,"viability, T/C",[34],110%
same,"viability, T/C",[35],90.4%
same,"viability, T/C",[36],110%
same,"viability, T/C","second compound 10 µM, first compound 3.16 µM",87%
same,"viability, T/C","second compound 10 µM, first compound 10 µM",107%
